Test system: PHA-stimulated lymphocytes of non-cancerous individuals
Assay: FISH replication assay, lymphocytes of non-cancerous individuals grown with 5-azacytidine (Example 6)
Assay type: cell-based, human
Settings: for percentage of SD cells, mean value in AZA-exposed non-cancerous samples: samples 16-30, 72 hours, mean ± standard deviation
Procedure: Each subject donated five ml of peripheral blood. Cell cultures of PHA-stimulated lymphocytes were set up according to standard protocol (Rooney and Czepulkowsli, 1992). Briefly, 0.5 ml of peripheral blood was introduced into a 15 ml test tube containing 5ml F-10 medium supplemented with 20% fetal calf serum, 0.2% heparin, 1% penicillin/streptomycin antibiotic solution (Biological industries, Israel) and 3% phytohemagglutinin (PHA). In addition, all the 15 samples derived from the hematological patients (samples 1-15) and 15 of the 41 samples derived from non-cancerous subjects (samples 16-30) were also grown in the presence of 10^−7M 5-azacytidine (AZA; Sigman, USA) added to the other ingredients described above.
After 72 hours at 37° C., colchicine (Sigma, USA) was added to each sample (final concentration of 5×10^−7M for one hour) followed by hypotonic treatment (0.075 M KC1 at 37° C. for 15 minutes) and four washes, each with a fresh cold (−20° C.) 3:1 solution of methanol: acetic acid. The cell suspensions were stored at −20° C. until used for FISH.
Six diverse loci were tested using directly labeled commercial probes obtained from Vysis: (i) the SNRPN probe (32-190004); (ii) the TP53 probe (32-190006); (iii) the AML1 probe (LSI 21; 32-190002); (iv) the RB1 probe (LSI 13; 32-190001); (v) the α-satellite probe specific for centromere 17 (32-130017, hereafter marked as CEN17); and (vi) the satellite III probe specific for centromere 15 (32-1300015, hereafter marked as CEN15). The SNRPN probe identifies the Prader-Willi/Angelman syndrome region on 15q11-13 and is the most well characterized imprinted region in man (Ozoelik et al 1992). The TP53 probe identifies the p53 gene mapped to […] and is a tumor suppressor gene whose deletion and/or inactivation is implicated in over 50% of all human tumors (Prokocimer et al 1998). The AML1 probe recognizes a gene mapped to chromosome 21q22, which is one of the most frequently translocated genes in human blood malignancy (Look 1997). […] It is located on chromosome 13q14, and encodes the retinoblastoma protein. Both centromere specific probes (CEN17 and CEN15) identify non-coding loci implicated with chromosomal segregation and stability and are usually used for the enumeration of chromosome 17 and 15, respectively. Also the AML1 and RB1 probes, although not identifying centromeric regions, were both approved by the FDA to replace centromere specific probes for the enumeration of chromosomes 21 and 13, respectively.
A standard protocol was followed, as recommended by Ingen Laboratories (currently Insitus Biotechnologies), with few minor changes. Probes were diluted in Ingen's DenHyb solutions D001 to 400 folds (CEN17 and CEN15) and in D003 to 100 fold (AML1; RB1) or 50 fold (TP53; SNRPN) instead of the hybridization solution supplied with the probe. Five μl of the probe solution was placed on the targeted area of the sample slides and covered with a 12 mm round silanized coverslip (Ingen laboratories, USA) at 76° C. and denatured for six minutes at that temperature. The slide-filled aluminum slide tray was then transferred into an HybBox (Ingen Laboratories, USA), covered and allowed to hybridize overnight in the box.
Each of the 15 samples derived from the noncancerous subjects (samples 16-30) grown in the presence of AZA was also analyzed with each of the six probes used.
Slides were analyzed blindly on an Olympus BH2 fluorescent microscope, using a triple band-pass filter (Chroma technology). For the replication assay (Boogs and Chinault, 1997) at least 100 cells, containing two well-defined hybridization signals were scored from each sample, for each probe and for each treatment, following one-color FISH. The structure of each signal, either singlet (S), representing a non-replicated sequence, or doublet (D), disclosing a replicated sequence, was noted FIG. 1. […]

Nc1ncn([C@@H]2O[C@H](CO)[C@@H](O)[C@H]2O)c(=O)n1 [AZA, 5-azacytidine]
percentage of SD cells, mean value in AZA-exposed non-cancerous samples (AML1 locus, 10^-7M AZA): 21.5±4.5%
percentage of SD cells, mean value in AZA-exposed non-cancerous samples (CEN15 locus, 10^-7M AZA): 20.9±3.8%
percentage of SD cells, mean value in AZA-exposed non-cancerous samples (CEN17 locus, 10^-7M AZA): 20.9±5.0%
percentage of SD cells, mean value in AZA-exposed non-cancerous samples (RB1 locus, 10^-7M AZA): 22.3±3.9%
percentage of SD cells in AZA-exposed non-cancerous samples, range (TP53, AML1, RB1, CEN17 and CEN15, 10^-7M AZA): 12-29%
percentage of SD cells, mean value in AZA-exposed non-cancerous samples (TP53 locus, 10^-7M AZA): 20.4±4.4%
combined SD frequency (mean of TP53, AML1, RB1, CEN17 and CEN15) per sample, range (non-cancerous samples exposed to AZA): 16.7-24.6%
